Source: ChEMBL document CHEMBL4033648, “Eco-friendly synthesis of novel cyanopyridine derivatives and their anticancer and PIM-1 kinase inhibitory activities” (Eur J Med Chem, 2017)

Legend:
HCT-116 = test: Cytotoxicity against human HCT116 cells; format: functional, cell-based
MCF7 = test: Cytotoxicity against human MCF7 cells; format: functional, cell-based
HepG2 [1] = test: Cytotoxicity against human HepG2 cells; format: functional, cell-based
[2] = target: Serine/threonine-protein kinase pim-1 (Homo sapiens, UniProt P11309); test: Inhibition of human PIM1 measured after 5 mins by ELISA relative to control
HepG2 [3] = test: Induction of apoptosis in human HepG2 cells assessed as upregulation of caspase 3 level measured up to 30 mins by immunoassay relative to control; format: functional
HepG2 [4] = test: Induction of apoptosis in human HepG2 cells assessed as increase in Bax/Bcl2 ratio by qRT-PCR analysis relative to control; format: functional
HepG2 [5] = test: Induction of apoptosis in human HepG2 cells assessed as increase in Bax level by qRT-PCR analysis relative to control; format: functional
HepG2 [6] = test: Induction of apoptosis in human HepG2 cells assessed as decrease in Bcl2 level by qRT-PCR analysis relative to control; format: functional

**Q.** Which IC50 (HCT-116) does the source give for N#Cc1c(-c2cccs2)cc(-c2cccs2)nc1O here?
**A.** The IC50 was 187 µM.

**Q.** And the IC50 (MCF7)?
**A.** The IC50 was 249 µM.

**Q.** What about the IC50 (HepG2 [1]) of the same molecule?
**A.** Its IC50 is 41.6 µM.

**Q.** What about the IC50 [2] of the same molecule?
**A.** The IC50 was 3.16 µM.

**Q.** And the inhibition [2]?
**A.** The inhibition was 84.8%.

**Q.** How did the IC50 (HepG2 [1]) turn out when COc1ccc(-c2cc(-c3cc4c(ccc5ccccc54)oc3=O)nc(N)c2C#N)cc1 was run?
**A.** Its IC50 is 300 µM.

**Q.** And the inhibition [2]?
**A.** The inhibition was 26%.

**Q.** For N#Cc1c(-c2cccc3ccccc23)cc(-c2cc3c(ccc4ccccc43)oc2=O)[nH]c1=O, which IC50 (HCT-116) is on record?
**A.** The IC50 was 25.9 µM.

**Q.** And the IC50 (MCF7)?
**A.** The IC50 was 25.2 µM.

**Q.** What about the IC50 (HepG2 [1]) of the same molecule?
**A.** The IC50 was 15.3 µM.

**Q.** What about the IC50 [2] of the same molecule?
**A.** Its IC50 is 1.47 µM.

**Q.** And the inhibition [2]?
**A.** Its inhibition is 79.5%.

**Q.** With N#Cc1c(-c2cccc3ccccc23)cc(-c2cccs2)[nH]c1=O as the molecule, how does the IC50 (HCT-116) read?
**A.** The IC50 was 28.6 µM.

**Q.** And the IC50 (MCF7)?
**A.** Its IC50 is 27.1 µM.

**Q.** What about the IC50 (HepG2 [1]) of the same molecule?
**A.** The IC50 was 35.9 µM.

**Q.** What about the IC50 [2] of the same molecule?
**A.** Its IC50 is 4.8 µM.

**Q.** And the inhibition [2]?
**A.** The inhibition was 77.8%.

**Q.** For COc1ccc(-c2cc(-c3cc4c(ccc5ccccc54)oc3=O)[nH]c(=O)c2C#N)cc1, which IC50 (HCT-116) is on record?
**A.** Its IC50 is 24.9 µM.

**Q.** And the IC50 (MCF7)?
**A.** Its IC50 is 36.7 µM.

**Q.** What about the IC50 (HepG2 [1]) of the same molecule?
**A.** The IC50 was 36.3 µM.

**Q.** What about the IC50 [2] of the same molecule?
**A.** Its IC50 is 10.6 µM.

**Q.** And the inhibition [2]?
**A.** The inhibition was 83.1%.

**Q.** Which IC50 (HCT-116) does the source give for N#Cc1c(-c2cccs2)cc(-c2cc3c(ccc4ccccc43)oc2=O)nc1N here?
**A.** The IC50 was 80 µM.

**Q.** What about the IC50 (MCF7) of the same molecule?
**A.** The IC50 was 59.1 µM.

**Q.** And the IC50 (HepG2 [1])?
**A.** The IC50 was 35.7 µM.

**Q.** What about the IC50 [2] of the same molecule?
**A.** Its IC50 is 19.3 µM.

**Q.** And the inhibition [2]?
**A.** Its inhibition is 69.2%.

**Q.** How did the IC50 (HCT-116) turn out when COc1ccc(-c2cc(-c3cccs3)nc(N)c2C#N)cc1 was run?
**A.** The IC50 was 122 µM.

**Q.** What about the IC50 (MCF7) of the same molecule?
**A.** Its IC50 is 88.3 µM.

**Q.** And the IC50 (HepG2 [1])?
**A.** The IC50 was 104 µM.

**Q.** And the inhibition [2]?
**A.** Its inhibition is 76.9%.

**Q.** With N#Cc1c(-c2cccs2)cc(-c2cccs2)nc1N as the molecule, how does the IC50 (HCT-116) read?
**A.** Its IC50 is 91.2 µM.

**Q.** And the IC50 (MCF7)?
**A.** The IC50 was 72.1 µM.

**Q.** And the IC50 (HepG2 [1])?
**A.** The IC50 was 28.3 µM.

**Q.** What about the IC50 [2] of the same molecule?
**A.** The IC50 was 7.52 µM.

**Q.** And the inhibition [2]?
**A.** Its inhibition is 85%.

**Q.** Which IC50 (HCT-116) does the source give for N#Cc1c(-c2cccc3ccccc23)cc(-c2ccc3ccccc3c2)nc1N here?
**A.** The IC50 was 20.5 µM.

**Q.** What about the IC50 (MCF7) of the same molecule?
**A.** Its IC50 is 19.2 µM.

**Q.** And the IC50 (HepG2 [1])?
**A.** The IC50 was 11.9 µM.

**Q.** And the IC50 [2]?
**A.** Its IC50 is 1.16 µM.

**Q.** What about the inhibition [2] of the same molecule?
**A.** The inhibition was 86.5%.

**Q.** Which results are given for N#Cc1c(-c2cccc3ccccc23)cc(-c2cc3c(ccc4ccccc43)oc2=O)nc1N?
**A.** IC50 (HCT-116): 30.6 µM; IC50 (MCF7): 80.7 µM; IC50 (HepG2 [1]): 45.8 µM; IC50 [2]: 25.5 µM; inhibition [2]: 61.5%

**Q.** Which IC50 (HCT-116) does the source give for COc1ccc(-c2cc(-c3cccs3)[nH]c(=O)c2C#N)cc1 here?
**A.** Its IC50 is 28.7 µM.

**Q.** What about the IC50 (MCF7) of the same molecule?
**A.** The IC50 was 21.9 µM.

**Q.** What about the IC50 (HepG2 [1]) of the same molecule?
**A.** The IC50 was 15.5 µM.

**Q.** What about the IC50 [2] of the same molecule?
**A.** The IC50 was 6.7 µM.

**Q.** What about the inhibition [2] of the same molecule?
**A.** Its inhibition is 73%.

**Q.** What does the source list for N#Cc1c(-c2cccc3ccccc23)cc(-c2ccc3ccccc3c2)[nH]c1=O?
**A.** IC50 (HCT-116): 228 µM; IC50 (MCF7): 236 µM; IC50 (HepG2 [1]): 220 µM; IC50 [2]: 10 µM; inhibition [2]: 81%

**Q.** With N#Cc1c(-c2cccs2)cc(-c2cc3c(ccc4ccccc43)oc2=O)[nH]c1=O as the molecule, how does the IC50 (HCT-116) read?
**A.** The IC50 was 36.2 µM.

**Q.** What about the IC50 (MCF7) of the same molecule?
**A.** Its IC50 is 20.6 µM.

**Q.** What about the IC50 (HepG2 [1]) of the same molecule?
**A.** Its IC50 is 30.5 µM.

**Q.** And the “fold change (FC)” value (HepG2 [3])?
**A.** Its value is 5.6.

**Q.** What about the “fold change (FC)” value (HepG2 [4]) of the same molecule?
**A.** Its value is 22704.

**Q.** And the “fold change (FC)” value (HepG2 [5])?
**A.** The value was 585.

**Q.** What about the “fold change (FC)” value (HepG2 [6]) of the same molecule?
**A.** The value was 38.7.

**Q.** What about the IC50 [2] of the same molecule?
**A.** The IC50 was 0.94 µM.

**Q.** What about the inhibition [2] of the same molecule?
**A.** Its inhibition is 89%.

**Q.** How did the IC50 [2] turn out when COc1cc2c(c(OC)c1OC)-c1ccc(OC)c(=O)cc1[C@@H](NC(C)=O)CC2 [COLCHICINE] was run?
**A.** Its IC50 is 4.3 µM.

**Q.** What about the inhibition [2] of the same molecule?
**A.** The inhibition was 65.1%.

**Q.** O=c1[nH]cc(F)c(=O)[nH]1 [FLUOROURACIL] was tested. Which IC50 (MCF7) did it give?
**A.** The IC50 was 7.9 µM.

**Q.** What about the IC50 (HepG2 [1]) of the same molecule?
**A.** Its IC50 is 8.1 µM.

**Q.** What does the source list for N#Cc1c(-c2cccc3ccccc23)cc(-c2cccs2)nc1N?
**A.** IC50 (HCT-116): 66.7 µM; IC50 (MCF7): 38.8 µM; IC50 (HepG2 [1]): 181 µM; inhibition [2]: 58.5%
